We go through 28 compounds from PMC11333205, “Pyridylpiperazine-based carbodithioates as urease inhibitors: synthesis and biological evaluation” (Frontiers in Chemistry, 2024).

Data set [1] has as its target urease (Canavalia ensiformis, UniProt P07374). Kind of data set: biochemical. The format is biochemical. As to the method:
The inhibitory potential of the compounds was assessed using a slightly modified indophenol method ([Hina et al., 2023]). In 96-well plates, a mixture consisting of 50 µL urease, 30 µL buffer solution (phosphate buffer, sodium salicylate, sodium nitroprusside, and EDTA, pH 8.0), 10 µL urea substrate (100 mM), and 10 µL of the test compound (1 mM) was subjected to pre-incubation for 10 min at room temperature. Subsequently, an alkali reagent (70 µL) was promptly introduced into each well. Then, 30 min later, the absorbance at 630 nm for all samples was measured using a BioTek ELx800 instrument from BioTek Instruments, Inc., United States. The data were collected for all experiments performed in triplicate, and the percentage of inhibitory activities was assessed utilizing the following formula: Percentage of inhibition=100 – Absorbance of compound/Absorbance of control × 100.

Molecules are shown by their SMILES. Like-named read-outs stand apart in the source and are kept apart here.

Chain of urease (P07374 whole entry, looked up): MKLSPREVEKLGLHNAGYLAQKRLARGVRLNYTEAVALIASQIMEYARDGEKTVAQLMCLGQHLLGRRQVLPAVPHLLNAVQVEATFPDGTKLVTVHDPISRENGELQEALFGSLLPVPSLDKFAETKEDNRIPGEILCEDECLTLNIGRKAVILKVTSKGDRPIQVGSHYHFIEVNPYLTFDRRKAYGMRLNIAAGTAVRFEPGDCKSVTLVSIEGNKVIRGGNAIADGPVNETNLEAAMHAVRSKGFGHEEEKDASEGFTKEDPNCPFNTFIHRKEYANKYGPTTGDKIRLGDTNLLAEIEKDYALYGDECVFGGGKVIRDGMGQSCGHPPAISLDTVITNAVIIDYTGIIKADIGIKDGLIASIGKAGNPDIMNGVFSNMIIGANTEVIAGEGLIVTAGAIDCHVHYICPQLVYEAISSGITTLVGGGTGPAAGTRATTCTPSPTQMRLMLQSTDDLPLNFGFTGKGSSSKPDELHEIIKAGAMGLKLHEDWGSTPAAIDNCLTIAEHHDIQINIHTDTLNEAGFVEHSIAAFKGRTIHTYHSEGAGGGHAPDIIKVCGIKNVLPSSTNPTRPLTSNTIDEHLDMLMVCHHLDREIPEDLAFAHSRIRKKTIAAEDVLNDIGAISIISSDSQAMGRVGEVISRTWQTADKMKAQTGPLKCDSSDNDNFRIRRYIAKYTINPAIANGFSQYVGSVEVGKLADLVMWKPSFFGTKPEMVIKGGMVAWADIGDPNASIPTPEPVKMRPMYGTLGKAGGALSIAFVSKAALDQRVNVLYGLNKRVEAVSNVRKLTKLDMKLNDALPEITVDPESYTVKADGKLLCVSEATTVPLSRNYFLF

In general, IC50 refers to the midpoint of a concentration-inhibition curve. As usually defined, the melting point is the temperature of the solid-liquid transition. In the case of `O=C(CSC(=S)N1CCN(c2ncccc2[N+](=O)[O-])CC1)Nc1ccccc1[N+](=O)[O-]` [Compound 5g, 2-((2-Nitrophenyl)amino)-2-oxoethyl 4-(3-nitropyridin-2-yl)piperazine-1-carbodithioate], the melting point lay in the range of 149 to 151 °C. This compound registered an IC50 in data set [1] of 16.84 ± 0.12 µM.

With `O=C(Nc1ccc(Cl)cc1)c1ccc(CSC(=S)N2CCN(c3ncccc3[N+](=O)[O-])CC2)cc1` [Compound 7d, 4-((4-Chlorophenyl)carbamoyl)benzyl 4-(3-nitropyridin-2-yl)piperazine-1-carbodithioate], the melting point is 147 to 148 °C. For the same compound, in data set [1], the concentration for half-maximal inhibition (IC50) was 43.11 ± 0.31 µM. As to `Cc1ccc(NC(=O)CSC(=S)N2CCN(c3ncccc3[N+](=O)[O-])CC2)cc1` [Compound 5l, 2-Oxo-2-(p-tolylamino)ethyl 4-(3-nitropyridin-2-yl)piperazine-1-carbodithioate], in data set [1], the IC50 was determined as 10.6 ± 0.36 µM.

Compound `O=C(Nc1ccccc1Cl)c1ccc(CSC(=S)N2CCN(c3ncccc3[N+](=O)[O-])CC2)cc1` [Compound 7b, 4-((2-Chlorophenyl)carbamoyl)benzyl 4-(3-nitropyridin-2-yl)piperazine-1-carbodithioate] registered a melting point of 109 to 110 °C. In data set [1], this compound came in with an IC50 of 32.53 ± 0.31 µM.

As for `NC(N)=S` [Thiourea, thiourea, reference compound], the IC50 in data set [1] (indophenol method, urea substrate 100 mM, pH 8.0, triplicate, read-out: Urease inhibition: IC50 ± SEM) was 23 ± 0.03 µM. In the case of `O=C(CSC(=S)N1CCN(c2ncccc2[N+](=O)[O-])CC1)Nc1cccc(Br)c1` [Compound 5e, 2-((3-Bromophenyl)amino)-2-oxoethyl 4-(3-nitropyridin-2-yl)piperazine-1-carbodithioate], the melting point was 110 to 112 °C. The compound further showed an IC50 in data set [1] of 32.53 ± 0.2 µM. For `Cc1ccccc1NC(=O)c1ccc(CSC(=S)N2CCN(c3ncccc3[N+](=O)[O-])CC2)cc1` [Compound 7j, 4-(o-Tolylcarbamoyl)benzyl 4-(3-nitropyridin-2-yl)piperazine-1-carbodithioate] the same measures were 113 to 115 °C and 12.3 ± 0.27 µM. `O=C(CSC(=S)N1CCN(c2ncccc2[N+](=O)[O-])CC1)Nc1ccc([N+](=O)[O-])cc1` [Compound 5i, 2-((4-Nitrophenyl)amino)-2-oxoethyl 4-(3-nitropyridin-2-yl)piperazine-1-carbodithioate] came in with a melting point of 168 to 169 °C. In addition, the IC50 in data set [1] amounted to 45.41 ± 0.23 µM. Regarding `O=C(CSC(=S)N1CCN(c2ncccc2[N+](=O)[O-])CC1)Nc1ccc(Br)cc1` [Compound 5f, 2-((4-Bromophenyl)amino)-2-oxoethyl 4-(3-nitropyridin-2-yl)piperazine-1-carbodithioate], the melting point was in the range of 136 to 138 °C. The compound also gave an IC50 in data set [1] of 21.3 ± 0.7 µM. Consider `COc1ccccc1NC(=O)CSC(=S)N1CCN(c2ncccc2[N+](=O)[O-])CC1` [Compound 5m, 2-((2-Methoxyphenyl)amino)-2-oxoethyl 4-(3-nitropyridin-2-yl)piperazine-1-carbodithioate], for which it took 8.17 ± 0.37 µM to reach half-maximal inhibition in data set [1] (IC50). Take `O=C(Nc1ccc([N+](=O)[O-])cc1)c1ccc(CSC(=S)N2CCN(c3ncccc3[N+](=O)[O-])CC2)cc1` [Compound 7i, 4-((4-Nitrophenyl)carbamoyl)benzyl 4-(3-nitropyridin-2-yl)piperazine-1-carbodithioate]: in data set [1], the IC50 was determined as 10.5 ± 0.34 µM.

With `O=C(CSC(=S)N1CCN(c2ncccc2[N+](=O)[O-])CC1)Nc1ccc(Cl)cc1` [Compound 5d, 2-((4-Chlorophenyl)amino)-2-oxoethyl 4-(3-nitropyridin-2-yl)piperazine-1-carbodithioate], the melting point was 143 to 144 °C. The IC50 in data set [1] was found to be 55.69 ± 0.2 µM. Consider `O=C(CSC(=S)N1CCN(c2ncccc2[N+](=O)[O-])CC1)Nc1cccc(Cl)c1` [Compound 5c, 2-((3-Chlorophenyl)amino)-2-oxoethyl 4-(3-nitropyridin-2-yl)piperazine-1-carbodithioate], for which the melting point fell in the range of 121 to 122 °C. The IC50 in data set [1] was found to be 37.33 ± 0.19 µM. For `O=C(CSC(=S)N1CCN(c2ncccc2[N+](=O)[O-])CC1)Nc1ccccc1Cl` [Compound 5b, 2-((2-Chlorophenyl)amino)-2-oxoethyl 4-(3-nitropyridin-2-yl)piperazine-1-carbodithioate], in that order: 114 to 116 °C and 41.03 ± 0.23 µM. For `O=C(Nc1cccc([N+](=O)[O-])c1)c1ccc(CSC(=S)N2CCN(c3ncccc3[N+](=O)[O-])CC2)cc1` [Compound 7h, 4-((3-Nitrophenyl)carbamoyl)benzyl 4-(3-nitropyridin-2-yl)piperazine-1-carbodithioate] the same measures were 165 to 166 °C and 47.94 ± 0.25 µM. With `O=C(CSC(=S)N1CCN(c2ncccc2[N+](=O)[O-])CC1)Nc1ccccc1` [Compound 5a, 2-Oxo-2-(phenylamino)ethyl 4-(3-nitropyridin-2-yl)piperazine-1-carbodithioate], the melting point fell in the range of 119 to 120 °C. In data set [1], this compound displayed an IC50 of 18.7 ± 0.52 µM. For `O=C(CSC(=S)N1CCN(c2ncccc2[N+](=O)[O-])CC1)Nc1cccc([N+](=O)[O-])c1` [Compound 5h, 2-((3-Nitrophenyl)amino)-2-oxoethyl 4-(3-nitropyridin-2-yl)piperazine-1-carbodithioate], in that order: 174 to 175 °C and 27 ± 2.15 µM. For `Cc1ccc(NC(=O)c2ccc(CSC(=S)N3CCN(c4ncccc4[N+](=O)[O-])CC3)cc2)cc1` [Compound 7l, 4-(P-tolylcarbamoyl)benzyl 4-(3-nitropyridin-2-yl)piperazine-1-carbodithioate] the same measures were 158 to 160 °C and 37.54 ± 0.26 µM. As to `Cc1cccc(NC(=O)c2ccc(CSC(=S)N3CCN(c4ncccc4[N+](=O)[O-])CC3)cc2)c1` [Compound 7k, 4-(m-Tolylcarbamoyl)benzyl 4-(3-nitropyridin-2-yl)piperazine-1-carbodithioate], the IC50 in data set [1] came out at 10.7 ± 0.26 µM. Compound `O=C(Nc1ccccc1)c1ccc(CSC(=S)N2CCN(c3ncccc3[N+](=O)[O-])CC2)cc1` [Compound 7a, 4-(Phenylcarbamoyl)benzyl 4-(3-nitropyridin-2-yl)piperazine-1-carbodithioate] yielded a melting point of 142 to 143 °C. The same compound returned a concentration for half-maximal inhibition (IC50) in data set [1] of 11.7 ± 0.26 µM. Turning to `O=C(Nc1ccc(Br)cc1)c1ccc(CSC(=S)N2CCN(c3ncccc3[N+](=O)[O-])CC2)cc1` [Compound 7f, 4-((4-Bromophenyl)carbamoyl)benzyl 4-(3-nitropyridin-2-yl)piperazine-1-carbodithioate], the melting point fell in the range of 162 to 164 °C. The same compound showed an IC50 in data set [1] of 16.8 ± 0.29 µM. The compound `Cc1cccc(NC(=O)CSC(=S)N2CCN(c3ncccc3[N+](=O)[O-])CC2)c1` [Compound 5k, 2-Oxo-2-(m-tolylamino)ethyl 4-(3-nitropyridin-2-yl)piperazine-1-carbodithioate] gave a melting point of 101 to 103 °C. Further, the concentration for half-maximal inhibition (IC50) in data set [1] was found to be 18.3 ± 0.17 µM. For `COc1ccccc1NC(=O)c1ccc(CSC(=S)N2CCN(c3ncccc3[N+](=O)[O-])CC2)cc1` [Compound 7m, 4-((2-Methoxyphenyl)carbamoyl)benzyl 4-(3-nitropyridin-2-yl)piperazine-1-carbodithioate], in that order: 166 to 167 °C and 18.7 ± 0.27 µM. On to `COc1ccc(NC(=O)c2ccc(CSC(=S)N3CCN(c4ncccc4[N+](=O)[O-])CC3)cc2)cc1` [Compound 7n, 4-((4-Methoxyphenyl)carbamoyl)benzyl 4-(3-nitropyridin-2-yl)piperazine-1-carbodithioate], for which the melting point was 187 to 189 °C. The compound also returned an IC50 in data set [1] of 24 ± 0.27 µM. On to `O=C(Nc1ccccc1[N+](=O)[O-])c1ccc(CSC(=S)N2CCN(c3ncccc3[N+](=O)[O-])CC2)cc1` [Compound 7g, 4-((2-Nitrophenyl)carbamoyl)benzyl 4-(3-nitropyridin-2-yl)piperazine-1-carbodithioate], for which the melting point fell in the range of 133 to 134 °C. Besides, in data set [1], the IC50 was 56.89 ± 0.31 µM. In turn, `O=C(Nc1cccc(Cl)c1)c1ccc(CSC(=S)N2CCN(c3ncccc3[N+](=O)[O-])CC2)cc1` [Compound 7c, 4-((3-Chlorophenyl)carbamoyl)benzyl 4-(3-nitropyridin-2-yl)piperazine-1-carbodithioate] gave a melting point of 140 to 141 °C. For the same compound, inhibition in data set [1] was half-maximal at 10.8 ± 0.52 µM (IC50). Consider `O=C(Nc1cccc(Br)c1)c1ccc(CSC(=S)N2CCN(c3ncccc3[N+](=O)[O-])CC2)cc1` [Compound 7e, 4-((3-Bromophenyl)carbamoyl)benzyl 4-(3-nitropyridin-2-yl)piperazine-1-carbodithioate], for which the melting point lay within 141 to 142 °C. In data set [1], this compound registered an IC50 of 16.5 ± 0.28 µM. `COc1ccc(NC(=O)CSC(=S)N2CCN(c3ncccc3[N+](=O)[O-])CC2)cc1` [Compound 5n, 2-((4-Methoxyphenyl)amino)-2-oxoethyl 4-(3-nitropyridin-2-yl)piperazine-1-carbodithioate] had a melting point of 151 to 153 °C. In data set [1], the IC50 worked out at 17.8 ± 0.29 µM.
